Assay results as given in patent publication US20110173718A1, “HERBICIDE TOLERANT PLANTS” (SYNGENTA CROP PROTECTION, INC., priority 2008, published 2011).
Where “and” joins values, the source holds several entries; their conditions need not be identical. Equal values may be shown once.

System: Arabidopsis HST transgenic tobacco plants
Assay: Glasshouse spray test, Arabidopsis HST transgenic tobacco
Assay type: in vivo
Settings: for Damage % 5 DAT / Damage % 10 DAT: 10 g/ha; for Damage % 5 DAT / Damage % 10 DAT / blch (% bleaching at the meristem relative to control plants) / ht (% height reduction relative to control plants): individual T0 lines; for blch (% bleaching at the meristem relative to control plants) / ht (% height reduction relative to control plants): 100 g; for % damaged: 8 DAT
Excerpt: For example the Arabidopsis HST SEQ ID # 11 is cloned behind a double 35s CMV promoter sequence and a TMV translational enhancer sequence and in front of the 3′ terminator from the nos gene. This expression cassette is ligated into pMJB1 (described in WO98/20144) and then into pBIN19 and then transformed into Agrobacterium tuniqfaciens strains LBA4404 prior to plant transformation.
For example, the full length Arabidopsis HST seq ID # 11 is fused to the TMV translational enhancer sequence (SEQ ID #33) by overlapping PCR and, at the same time, 5′ XhoI site and a 3′KpnI site are added by PCR. Site-directed mutagenesis is performed to remove an internal XhoI site. The TMV/HPPD fusion is removed from the pBIN19 by digestion with XhoI/KpnI and is replaced by the TMV/HST fusion (SEQ ID #34). The TMV/HST fusion is now cloned behind a double 35s promoter and in front of the 3′ terminator from the nos gene. Again the modified pBIN19 vector (‘pBinAT HST’) is then transformed into Agrobacterium tumefaciens strain LBA4404.
A master plate of Agrobacterium tumefaciens containing the binary vector pBinAT HST (described above) or analogous binary vector comprising a different HST is used to inoculate 10 ml LB containing 100 mg/1 Rifampicin plus 50 mg/1 Kanamycin using a single bacterial colony. This is incubated overnight at 28° C. shaking at 200 rpm. This entire overnight culture is used to inoculate a 50 ml volume of LA (plus antibiotics). Again this is cultured overnight at 28° C. shaking at 200 rpm. The Agrobacterium cells are pelleted by centrifuging at 3000 rpm for 15 minutes then resuspended in MS medium with 30 g/1 sucrose, pH 5.9 to an OD ([…])=0.6. This suspension is dispensed in 25 ml aliquots into petri dishes.
Clonal micro-propagated tobacco shoot cultures are used to excise young (not yet fully expanded) leaves. The mid rib and outer leaf margins are removed and discarded, the remaining lamina is cut into 1 cm squares. These are transferred to the Agrobacterium suspension for 20 minutes. Explants are then removed, dabbed on sterile filter paper to remove excess suspension then transferred to NBM medium (MS medium, 30 g/1 sucrose, 1 mg/1 BAP, 0.1 mg/1 NAA, pH 5.9, solidified with 8 g/1 Plantagar), with the abaxial surface of each explant in contact with the medium. Approximately 7 explants are transferred per plate, which are then sealed then maintained in a lit incubator at 25° C., 16 hour photoperiod for 3 days.
Explants are then transferred to NBM medium containing 100 mg/1 Kanamycin plus antibiotics to prevent further growth of Agrobacterium (200 mg/1 timentin with 250 mg/1 carbenicillin). Further subculture on to this same medium is then performed every 2 weeks.
As shoots start to regenerate from the callusing leaf explants these are removed to Shoot elongation medium (MS medium, 30 g/1 sucrose, 8 g/1 Plantagar, 100 mg/1 Kanamycin, 200 mg/1 timentin, 250 mg/1 carbenicillin, pH 5.9). Stable transgenic plants readily root within 2 weeks. To provide multiple plants per event to ultimately allow more than one herbicide test per transgenic plant all rooting shoots are micropropagated to generate 3 or more rooted clones.
Putative transgenic plants that are rooting and show vigorous shoot growth on the medium incorporating Kanamycin are analysed by PCR using primers that amplified a 500 bp fragment within the Arabidopsis HST transgene.
Rooted transgenic T0 plantlets are transferred from agar and potted into 50% peat, 50% John Innes soil no 3 or, for example, MetroMix® 380 soil (Sun Gro Horticulture, Bellevue, Wash.) with slow-release fertilizer in 3 inch round or 4 inch square pots and left regularly watered to establish for 8-12 d in the glass house. Glass house conditions are about 24-27° C. day; 18-21° C. night and approximately a 14 h (or longer in UK summer) photoperiod. Humidity is ˜65% and light levels up to 2000 μmol/m^2 at bench level. […]

## CS(=O)(=O)c1ccc(C(=O)C2C(=O)CCCC2=O)c([N+](=O)[O-])c1 [Mesotrione, mesotrione, reference compound]
T0 line 332
  Damage % 5 DAT: 30%
  Damage % 10 DAT: 10%
T0 line 351
  Damage % 5 DAT: 50%
  Damage % 10 DAT: 25%
T0 line 367
  Damage % 5 DAT: 25%
  Damage % 10 DAT: 10%
T0 line 404
  Damage % 5 DAT: 45%
  Damage % 10 DAT: 20%
T0 line 426
  Damage % 5 DAT: 45%
  Damage % 10 DAT: 20%
Arabidopsis HST T0 tobacco events (one value per event), 15 g/ha of mesotrione, 21 DAT
  ht (herbicidal damage): 80 and 90 and 85 and 70 and 75

## CC(C)C(=O)Oc1c(-c2c(F)ccc(Br)c2Cl)c(=O)n(CC(F)F)c2nccnc12 [Compound 2.30]
7 DAT
  blch (% bleaching at the meristem relative to control plants): 30% (2×) and 5% (4×) and 10% (3×) and 15% (2×) and 50% and 70% (2×) and 20% (2×) and 0% (5×) and 40% and 100% and 80% and 25%
  ht (% height reduction relative to control plants): 30% (4×) and 0% (7×) and 50% and 70% (3×) and 80% (3×) and 40% (2×) and 5% and 10% (2×) and 15% and 20%
26 DAT
  blch (% bleaching at the meristem relative to control plants): 25% (2×) and 0% (16×) and 100% and 85% (2×) and 90% (4×)
  ht (% height reduction relative to control plants): 75% (2×) and 5% (6×) and 15% (2×) and 30% (4×) and 50% (2×) and 60% and 80% and 90% (4×) and 35% and 10% (2×)

## Oc1c(Cl)c(F)nc(F)c1Cl [Compound 1.1, haloxydine]
250 g/ha, line E9
  % damaged: 20% and 40%
250 g/ha, line F6
  % damaged: 50% and 75%
250 g/ha, 25 DAT, line E9
  appearance of plants: healthy and similar sized to untreated control plants
250 g/ha, 25 DAT, line F6
  % damage: 50-70%
